Laboratory results from patent US9566312B2, “Cyclic peptides and use as medicines” (priority 2012, dated 2017).
pIC50: −log10 of the molar value. Like-named read-outs stand apart in the source and are kept apart here. Starred links: 1 amine or outer side, 2 acyl side, 3 side chain; linkers in the order of their positions; H or OH if unused. Non-standard residues stand in square brackets, D forms with d. Residues, ends and D or L forms follow the SMILES beside them. X78 = CC(C)N1CCN(CCOC[C@@H](C)[C@@H](C(=O)[*:2])N(C)[*:1])CC1; X28 = CCN1CCN(C(=O)OC[C@H](C)[C@@H](C(=O)[*:2])N(C)[*:1])CC1; X46 = C[C@H](CN1CC2CCC(C1)O2)[C@@H](C(=O)[*:2])N(C)[*:1]; X53 = C[C@H](CN(C)Cc1cccnc1)[C@@H](C(=O)[*:2])N(C)[*:1]; X65 = C[C@H](CCN1CCCCC1)[C@@H](C(=O)[*:2])N(C)[*:1]; MeBmt = C/C=C/C[C@@H](C)[C@@H](O)[C@H](NC)C(=O)O; NMeL = CN[C@@H](CC(C)C)C(=O)O; NMeV = CN[C@H](C(=O)O)C(C)C; dNMeA = CN[C@H](C)C(=O)O; Abu = CC[C@H](N)C(=O)O

Legend:
[1] = target: organic anion transporting polypeptide 1B1 (OATP1B1) (Homo sapiens (Human), UniProt Q9Y6L6); assay: OATP assay in CHO-OATP1B1 cells;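 also: inhibition of probe substrate uptake into the cells, ten minutes exposure, accumulated substrate read by fluorescence once cells were lysed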
organic anion transporting polypeptide 1B1 (OATP1B1), sequence (Q9Y6L6 whole entry): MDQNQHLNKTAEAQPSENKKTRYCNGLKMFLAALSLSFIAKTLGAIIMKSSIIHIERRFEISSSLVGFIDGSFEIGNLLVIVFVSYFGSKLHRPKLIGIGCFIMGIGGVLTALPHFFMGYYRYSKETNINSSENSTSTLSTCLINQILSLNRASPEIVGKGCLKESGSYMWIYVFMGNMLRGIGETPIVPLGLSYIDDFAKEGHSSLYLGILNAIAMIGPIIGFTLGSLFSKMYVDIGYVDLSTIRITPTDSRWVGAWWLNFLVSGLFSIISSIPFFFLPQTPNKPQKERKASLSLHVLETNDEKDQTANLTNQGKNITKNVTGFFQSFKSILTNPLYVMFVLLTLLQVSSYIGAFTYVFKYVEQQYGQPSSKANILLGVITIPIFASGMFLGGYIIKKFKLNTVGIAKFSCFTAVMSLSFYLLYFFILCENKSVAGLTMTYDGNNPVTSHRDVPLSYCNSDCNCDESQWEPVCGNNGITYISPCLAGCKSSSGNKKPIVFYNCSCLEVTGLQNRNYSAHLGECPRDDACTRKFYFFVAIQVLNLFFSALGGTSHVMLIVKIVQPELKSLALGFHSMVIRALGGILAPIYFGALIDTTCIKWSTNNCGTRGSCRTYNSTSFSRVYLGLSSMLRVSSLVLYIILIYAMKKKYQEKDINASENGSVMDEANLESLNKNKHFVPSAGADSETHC

[2] = system: genotype 1b subgenomic HCV replicon in Huh7.5 cells; type: cell-based, hepatitis C virus; conditions: read-out: RPLN-1b IC50
In short: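 Replicon inhibition read as renilla luciferase signal versus DMSO controls after 72 h incubation, in Huh7.5 cells harbouring a genotype 1b subgenomic replicon; medium phenol red-free DMEM lacking G418. CC50 determined in parallel via Cell Titer-Glo.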

[3] = target: CypF (Homo sapiens (Human), UniProt P30405); assay: Inhibitor binding to cyclophilin proteins by SPR, CypF; conditions: 1:1 binding model
CypF, sequence (P30405 30-207): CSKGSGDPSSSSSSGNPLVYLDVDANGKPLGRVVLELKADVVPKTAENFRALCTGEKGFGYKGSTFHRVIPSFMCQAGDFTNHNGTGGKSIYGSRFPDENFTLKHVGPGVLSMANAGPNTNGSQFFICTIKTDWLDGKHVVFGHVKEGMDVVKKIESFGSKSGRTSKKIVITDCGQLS
In short: (§1)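 Running buffer: 10 mM HEPES pH 7.4, 150 mM NaCl, 0.05% P20, 3% DMSO, with compound present. Capture of avi-tagged mono-biotinylated cyclophilin; single-cycle series, 1 min contact, 10 min dissociation. Rates and affinity fitted to a 1:1 interaction model.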

[4] = system: peripheral blood mononuclear cells (PBMC); assay: Anti-proliferative or immunosuppressive activity, BrdU incorporation in PHA-stimulated PBMC; type: cell-based; conditions: PHA 3 μg/ml, 60 hour compound treatment; read-out: EMV PBMC IC50
In short: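 BrdU ELISA read-out of DNA synthesis in freshly isolated PBMCs (two donors, 30,000 cells/well, X-VIVO 15). T-cell proliferation triggered with phytohemagglutinin at 3 μg/ml.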

[5] = target: cyclophilin B (CypB) (Homo sapiens (Human), UniProt P23284); assay: Inhibitor binding to cyclophilin proteins by SPR, CypB; set-up: unit not given here; conditions: 1:1 binding model
cyclophilin B (CypB), sequence (P23284 34-216): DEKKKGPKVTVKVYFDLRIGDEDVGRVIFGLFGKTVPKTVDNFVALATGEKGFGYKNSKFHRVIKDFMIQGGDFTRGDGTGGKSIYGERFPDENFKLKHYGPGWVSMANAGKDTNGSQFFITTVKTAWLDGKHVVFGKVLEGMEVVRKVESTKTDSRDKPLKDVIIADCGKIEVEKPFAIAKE
In short: as §1

[6] = target: cyclophilin A (CypA) (Homo sapiens (Human), UniProt P62937); assay: Inhibitor binding to cyclophilin proteins by SPR, CypA; set-up: unit not given here; conditions: 1:1 binding model;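 also: Single-cycle kinetics on a Biacore T200, compound injected at several concentrations for 1 min each at 50 µL/min, then 10 min dissociation, in HEPES pH 7.4 buffer with 3% DMSO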
cyclophilin A (CypA), sequence (P62937 whole entry): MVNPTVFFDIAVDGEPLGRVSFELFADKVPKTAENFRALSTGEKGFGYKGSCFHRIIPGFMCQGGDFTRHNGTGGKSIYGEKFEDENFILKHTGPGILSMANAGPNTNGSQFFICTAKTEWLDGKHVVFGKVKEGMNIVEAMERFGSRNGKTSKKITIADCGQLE

[7] = genotype 1b replicon, 72 h incubation

SMILES	pIC50 [1]	pIC50 [2, 7]	CypF Kd [3] [µM]	pIC50 [4]	CypB Kd [5]	CypA Kd [6]	pIC50 [2]
C/C=C/C[C@@H](C)[C@@H](O)[C@H]1C(=O)N[C@@H](CC)C(=O)N(C)[C@H](C)C(=O)N(C)[C@@H]([C@H](C)CCN2CCCCC2)C(=O)N[C@@H](C(C)C)C(=O)N(C)[C@@H](CC(C)C)C(=O)N[C@@H](C)C(=O)N[C@H](C)C(=O)N(C)[C@@H](CC(C)C)C(=O)N(C)[C@@H](CC(C)C)C(=O)N(C)[C@@H](C(C)C)C(=O)N1C [Compound 2.18.8, 3-[D-Ala]-4-[(2S,3R)-3-methyl-2-(methylamino)-5-(piperidin-1-yl)pentanoyl]-cyclosporin] (cyclo(A[dA][NMeL][NMeL][NMeV][MeBmt][Abu][dNMeA][X65]V[NMeL]))	5.64	7.35	0.0005	6.00	0.7	0.9	–
C/C=C/C[C@@H](C)[C@@H](O)[C@H]1C(=O)N[C@@H](CC)C(=O)N(C)[C@H](C)C(=O)N(C)[C@@H]([C@H](C)COCCN2CCN(C(C)C)CC2)C(=O)N[C@@H](C(C)C)C(=O)N(C)[C@@H](CC(C)C)C(=O)N[C@@H](C)C(=O)N[C@H](C)C(=O)N(C)[C@@H](CC(C)C)C(=O)N(C)[C@@H](CC(C)C)C(=O)N(C)[C@@H](C(C)C)C(=O)N1C [Compound 2.8.5, 3-[D-Ala]-4-[(2S,3S)-4-(2-(4-isopropylpiperazin-1-yl)ethoxy)-3-methyl-2-(methylamino)butanoyl]-cyclosporin] (cyclo(A[dA][NMeL][NMeL][NMeV][MeBmt][Abu][dNMeA][X78]V[NMeL]))	5.36	7.00	0.0004	5.09	0.5	0.6	–
C/C=C/C[C@@H](C)[C@@H](O)[C@H]1C(=O)N[C@@H](CC)C(=O)N(C)[C@H](C)C(=O)N(C)[C@@H]([C@@H](C)COC(=O)N2CCN(CC)CC2)C(=O)N[C@@H](C(C)C)C(=O)N(C)[C@@H](CC(C)C)C(=O)N[C@@H](C)C(=O)N[C@H](C)C(=O)N(C)[C@@H](CC(C)C)C(=O)N(C)[C@@H](CC(C)C)C(=O)N(C)[C@@H](C(C)C)C(=O)N1C [Compound 2.17.14, 3-[D-Ala]-4-[(2S,3R)-4-((4-ethylpiperazine-1-carbonyl)oxy)-3-methyl-2-(methylamino)butanoyl]-cyclosporin] (cyclo(A[dA][NMeL][NMeL][NMeV][MeBmt][Abu][dNMeA][X28]V[NMeL]))	5.66	7.24	0.0005	5.09	0.4	0.5	–
C/C=C/C[C@@H](C)[C@@H](O)[C@H]1C(=O)N[C@@H](CC)C(=O)N(C)[C@H](CCCO)C(=O)N(C)[C@@H]([C@H](C)CS(C)(=O)=O)C(=O)N[C@@H](C(C)C)C(=O)N(C)[C@@H](CC(C)C)C(=O)N[C@@H](C)C(=O)N[C@H](C)C(=O)N(C)[C@@H](CC(C)C)C(=O)N(C)[C@@H](CC(C)C)C(=O)N(C)[C@@H](C(C)C)C(=O)N1C (stereo in doubt) [Compound 3.4.1, 3-[(R)-5-hydroxy-2-(methylamino)pentanoyl]-4-[(2S,3S)-3-methyl-2-(methylamino)-4-(methylsulfonyl)butanoyl]-cyclosporin]	5.57	5.35	0.0038	5.24	2.8	7.0	–
C/C=C/C[C@@H](C)[C@@H](O)[C@H]1C(=O)N[C@@H](CC)C(=O)N(C)[C@H](C)C(=O)N(C)[C@@H]([C@H](C)CN(C)Cc2cccnc2)C(=O)N[C@@H](C(C)C)C(=O)N(C)[C@@H](CC(C)C)C(=O)N[C@@H](C)C(=O)N[C@H](C)C(=O)N(C)[C@@H](CC(C)C)C(=O)N(C)[C@@H](CC(C)C)C(=O)N(C)[C@@H](C(C)C)C(=O)N1C [Compound 2.5.25, 3-[D-Ala]-4-[(2S,3R)-3-methyl-4-(methyl(pyridin-3-ylmethyl)amino)-2-(methylamino)butanoyl]-cyclosporin] (cyclo(A[dA][NMeL][NMeL][NMeV][MeBmt][Abu][dNMeA][X53]V[NMeL]))	6.00	7.66	0.001	5.25	1.0	1.8	–
C/C=C/C[C@@H](C)[C@@H](O)[C@H]1C(=O)N[C@@H](CC)C(=O)N(C)[C@H](C)C(=O)N(C)[C@@H]([C@H](C)CN2CC3CCC(C2)O3)C(=O)N[C@@H](C(C)C)C(=O)N(C)[C@@H](CC(C)C)C(=O)N[C@@H](C)C(=O)N[C@H](C)C(=O)N(C)[C@@H](CC(C)C)C(=O)N(C)[C@@H](CC(C)C)C(=O)N(C)[C@@H](C(C)C)C(=O)N1C [Compound 2.5.3, 3-[D-Ala]-4-[(2S,3R)-4-(8-oxa-3-azabicyclo[3.2.1]octan-3-yl)-3-methyl-2-(methylamino)butanoyl]-cyclosporin] (cyclo([MeBmt][Abu][dNMeA][X46]V[NMeL]A[dA][NMeL][NMeL][NMeV]))	5.77	–	0.0014	5.24	1.8	2.4	7.38
